In PubChem BioAssay (NCI) one finds TGI and GI50 data, which are given here for 16 compounds.

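All cell lines were grown in 96-well plates and treated with compound for 48 hours. The concentration for 50% growth inhibition is given as GI50. TGI denotes the concentration required for complete inhibition of growth.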

Some test systems named below: HL-60(TB) leukemia; OVCAR-8 ovarian; HCT-15 colon; HCC-2998 colon; UO-31 renal; EKVX NSCLC; RPMI-8226 leukemia; K-562 leukemia; OVCAR-3 ovarian.
Holding throughout (assay): NCI anticancer screen, dose series, 48 h

For the compound `COCC(OC)C(CC=C(C#N)C#N)OC` (configuration not stated), the TGI in the assay with HL-60(TB) leukemia, in the assay on OVCAR-8 ovarian, in the assay with HCT-15 colon, with HCC-2998 colon, in the assay on UO-31 renal and in the assay on EKVX NSCLC was more than 100 µM in each case. The TGI in the assay on RPMI-8226 leukemia, in the assay on K-562 leukemia and in the assay with OVCAR-3 ovarian was more than 100 µM throughout.
As to `C/C(CC(=O)Nc1ccc(C)c(C)c1)=N\N(c1ccccc1)c1ccccc1`, the TGI with HL-60(TB) leukemia, in the assay with OVCAR-8 ovarian, with HCT-15 colon, with HCC-2998 colon, in the assay with UO-31 renal and in the assay on EKVX NSCLC was more than 100 µM throughout. For the same compound, the TGI with RPMI-8226 leukemia was more than 100 µM; with K-562 leukemia, 68.9 µM; in the assay with OVCAR-3 ovarian it was more than 100 µM.
Consider `COC(=O)/C(=N\NC(N)=S)C(C(=O)OC)C(=O)C(=O)Nc1ccc(C)cc1` (configuration not stated), for which the TGI with HL-60(TB) leukemia, in the assay on OVCAR-8 ovarian, with HCT-15 colon, in the assay with HCC-2998 colon, with UO-31 renal and in the assay on EKVX NSCLC was more than 100 µM in each case. Also, the TGI with RPMI-8226 leukemia, in the assay on K-562 leukemia and in the assay on OVCAR-3 ovarian was more than 100 µM each time.
For the compound `CCOC(=O)c1ccc(/C(C)=N/NC(N)=S)cc1`, the TGI with HL-60(TB) leukemia, with OVCAR-8 ovarian, in the assay on HCT-15 colon, in the assay with HCC-2998 colon, with EKVX NSCLC and with RPMI-8226 leukemia was more than 100 µM in each case. The TGI in the assay on K-562 leukemia and in the assay on OVCAR-3 ovarian was more than 100 µM in each case.
Regarding `COC(=O)/C(C#N)=C1\N=NNN1c1ccc(OC)cc1`, the TGI in the assay with OVCAR-8 ovarian, in the assay with HCT-15 colon, with HCC-2998 colon, in the assay with UO-31 renal, in the assay with EKVX NSCLC and in the assay on RPMI-8226 leukemia was more than 100 µM in each case. The TGI in the assay with K-562 leukemia and with OVCAR-3 ovarian was more than 100 µM throughout.
On to `O=[N+]([O-])c1ccc2occ3c2c1CCC3`, for which the TGI with HL-60(TB) leukemia, in the assay on OVCAR-8 ovarian, in the assay with HCT-15 colon, in the assay with HCC-2998 colon, with UO-31 renal and in the assay on EKVX NSCLC was more than 100 µM throughout. For the same compound, the TGI in the assay on RPMI-8226 leukemia, with K-562 leukemia and in the assay on OVCAR-3 ovarian was more than 100 µM in each case.
Consider `O=C(Nc1cccc(Cl)c1)C(=O)C(C(=O)c1ccc2ccccc2c1)C1OC(=O)c2ccccc21` (configuration not stated), for which the TGI with HL-60(TB) leukemia is 40.7 µM; with OVCAR-8 ovarian, 68.9 µM; in the assay with HCC-2998 colon, 21.8 µM; in the assay with UO-31 renal, 29.9 µM; in the assay on EKVX NSCLC, more than 100 µM; in the assay on RPMI-8226 leukemia, 44 µM. For the same compound, the TGI in the assay with K-562 leukemia is 70.2 µM; in the assay with OVCAR-3 ovarian it was 56.6 µM.
Take `O=C(OC1CCC(=C2SCCCS2)[C@H]1C1SCCCS1)c1ccccc1` (some centres not stated): the TGI in the assay on HL-60(TB) leukemia, in the assay on OVCAR-8 ovarian, in the assay on HCT-15 colon, in the assay on HCC-2998 colon, in the assay on UO-31 renal and in the assay with EKVX NSCLC was more than 100 µM throughout. For the same compound, the TGI with RPMI-8226 leukemia, with K-562 leukemia and in the assay on OVCAR-3 ovarian was more than 100 µM throughout.
Consider `Cc1nc(Nc2ccc(Cl)cc2)sc1C(=O)NNC(=S)NN`, for which the TGI came out at 50.2 µM in the assay with HL-60(TB) leukemia; 43.7 µM in the assay on OVCAR-8 ovarian; 45.5 µM with HCT-15 colon; 28.8 µM with HCC-2998 colon; 30.2 µM with UO-31 renal; 46.8 µM in the assay with EKVX NSCLC. For the same compound, the TGI with RPMI-8226 leukemia was 79.5 µM; in the assay on K-562 leukemia, 99 µM; in the assay on OVCAR-3 ovarian, 39.5 µM.
For `CCCCCCCCCCCCCCCC(=O)OCCOCCOCCOCc1ccccc1`, the TGI in the assay on OVCAR-8 ovarian, in the assay with EKVX NSCLC and in the assay with OVCAR-3 ovarian was more than 100 µM in each case.
As to `CCOC(=O)N[C@H]1CCc2cc(OC)c(OC)c(OC)c2-c2ccc(SC)c(=O)cc21`, the TGI with HL-60(TB) leukemia is less than 0.01 µM; in the assay with OVCAR-8 ovarian, more than 100 µM; in the assay on HCT-15 colon it was more than 100 µM; in the assay with HCC-2998 colon it was more than 69.6 µM; with UO-31 renal, more than 100 µM; in the assay with EKVX NSCLC, more than 100 µM. Moreover, the TGI in the assay on RPMI-8226 leukemia and in the assay on K-562 leukemia was more than 100 µM in each case. Moreover, the GI50 in the assay with UO-31 renal is 254 nM; with EKVX NSCLC it was less than 10 nM.
On to `CC(C)(C)c1cc(C(P(=O)(O)O)P(=O)(O)O)cc(C(C)(C)C)c1O`, for which the TGI in the assay with HL-60(TB) leukemia, in the assay with OVCAR-8 ovarian, with HCT-15 colon, in the assay on HCC-2998 colon, in the assay on UO-31 renal and in the assay with EKVX NSCLC was more than 100 µM throughout. For the same compound, the TGI with RPMI-8226 leukemia, in the assay on K-562 leukemia and in the assay with OVCAR-3 ovarian was more than 100 µM each time.
Consider `CC1(C)COC(c2cccc3c2C(=O)c2cccc(Cl)c2-3)=N1`, for which the TGI in the assay on HL-60(TB) leukemia, in the assay with OVCAR-8 ovarian, with HCT-15 colon, in the assay on HCC-2998 colon, in the assay on UO-31 renal and in the assay with EKVX NSCLC was more than 100 µM in each case. Further, the TGI in the assay with RPMI-8226 leukemia, in the assay on K-562 leukemia and with OVCAR-3 ovarian was more than 100 µM throughout.
Take `COC(=O)C1CCCC2(C1)OCCO2` (configuration not stated): the TGI in the assay on OVCAR-8 ovarian, with HCT-15 colon, in the assay with HCC-2998 colon, with UO-31 renal, in the assay with EKVX NSCLC and in the assay with RPMI-8226 leukemia was more than 100 µM throughout. The TGI with K-562 leukemia and in the assay on OVCAR-3 ovarian was more than 100 µM in each case.
Regarding `C=CCCCCC1CCC2CCC(CCCCC=C)N12` (configuration not stated), the TGI in the assay with HL-60(TB) leukemia came to 36.5 µM; with OVCAR-8 ovarian, 33.1 µM; in the assay with HCT-15 colon, 19.4 µM; in the assay on HCC-2998 colon, 30 µM; in the assay on UO-31 renal, 27.4 µM; in the assay on RPMI-8226 leukemia it was 41 µM. Besides, the TGI with K-562 leukemia came out at 42.1 µM; in the assay with OVCAR-3 ovarian it was 30.2 µM.
Turning to `Cc1ccc2nc(/C(=C/c3ccc(/C=C(\NC(=O)c4ccccc4)c4nc5ccc(C)cc5[nH]4)c(C)c3)NC(=O)c3ccccc3)[nH]c2c1`, the TGI with OVCAR-8 ovarian was 81.8 µM; with HCT-15 colon, more than 100 µM; in the assay with UO-31 renal, 30.8 µM; in the assay with EKVX NSCLC it was more than 100 µM; in the assay on RPMI-8226 leukemia it was 80.9 µM; in the assay on K-562 leukemia, 45.4 µM. For the same compound, in the assay with OVCAR-3 ovarian, the TGI worked out at 22 µM.
